Target: T1, Sulfolobus solfataricus MAT (sMAT) (Saccharolobus solfataricus, UniProt Q980S9)
T1 sequence (Q980S9 1-404): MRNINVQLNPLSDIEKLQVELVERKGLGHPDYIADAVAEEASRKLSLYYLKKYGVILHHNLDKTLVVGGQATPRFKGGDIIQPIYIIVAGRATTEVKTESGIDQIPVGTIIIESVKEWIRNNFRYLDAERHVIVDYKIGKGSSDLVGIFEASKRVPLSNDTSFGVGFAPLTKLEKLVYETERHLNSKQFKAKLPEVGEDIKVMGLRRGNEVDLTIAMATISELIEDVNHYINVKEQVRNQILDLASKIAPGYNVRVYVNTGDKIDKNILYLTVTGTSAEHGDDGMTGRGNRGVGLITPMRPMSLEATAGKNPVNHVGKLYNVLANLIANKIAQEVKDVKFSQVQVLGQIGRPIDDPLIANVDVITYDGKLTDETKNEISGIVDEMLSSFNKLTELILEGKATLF
Assay: not given
Assay type: biochemical
Conditions: 2 mM analog, 1 mM ATP, 5 μM sMAT, pH 8.0, 4 h at 65° C.; average of two assays
Protocol: In-vitro sMAT assay: In vitro sMAT reactions were conducted in a volume of 50 μl with 2 mM S/Se-alkylated analog, 1 mM ATP and 5 μM purified sMAT in 25 mM Tris buffer pH 8.0, 5 mM MgCl2, 50 mM KCl for 4 h at 65° C. Reactions were quenched by adding an equal volume of methanol followed by centrifugation (10,000×g for 15 min) to remove the precipitated protein and product formation for each reaction was subsequently analyzed by reverse phase HPLC (RP-HPLC) using method described below. For each reaction, percent yield was based upon the integration of species at 254 nm and calculated by dividing the integrated area of product and/or decomposed product by the sum of integrated area of product and/or decomposed product and the remaining substrate. The assays were repeated twice under identical conditions, and Table 4 (and FIG. 17) represents an average value of two assays. The inclusion of adenine and 5′-R-thio-5′-adenosine in these calculations is based upon the established SAM and ATP chemical decomposition pathways which indicate adenine and 5′-R-thio-5′-adenosine to only derive from SAM (not ATP). All putative products were subsequently confirmed by high resolution electrospray ionization (ESI) mass spectra with positive (+) and/or negative (−) mode.
RP-HPLC method: Reactions were quenched by the addition of equal volume of methanol followed by centrifugation at 10,000 g for 15 min to remove precipitated protein before applying on an analytical Varian ProStar HPLC [Luna C18 column, 5 μm, 4.6 mm×250 mm; Phenomenex, Torrance, Calif., USA; gradient of 10% B to 40% B over 15 min, 40% B to 75% B over 5 min (A=10 mM NaH2PO4, 5 mM octane sulfonic acid, pH was adjusted to 3.5 using phosphoric acid; B=acetonitrile) flow rate=1 mL min^−1; A254].

Row | Structure (SMILES) | Percentage Turn-Over (sMAT) [%]
1 | C=C/C=C/CSCC[C@H](N)C(=O)O [compound 16, (2S)-2-amino-4-[(2E)-penta-2,4-dien-1-ylsulfanyl]butanoic acid] | 14
2 | CC(C)SCC[C@H](N)C(=O)O [compound 9, (2S)-2-amino-4-(propan-2-ylsulfanyl)butanoic acid] | 53
3 | [N-]=[N+]=NC/C=C/CSCC[C@H](N)C(=O)O [compound 23, (2S)-2-amino-4-{[(2E)-4-azidobut-2-en-1-yl]sulfanyl}butanoic acid] | 28
4 | [N-]=[N+]=NCCSCC[C@H](N)C(=O)O [compound 17, (2S)-2-amino-4-[(2-azidoethyl)sulfanyl]butanoic acid] | 50
5 | C=C(C)CSCC[C@H](N)C(=O)O [compound 12, (2S)-2-amino-4-[(2-methylprop-2-en-1-yl)sulfanyl]butanoic acid] | 15

Target: Escherichia coli MAT (eMAT) (Escherichia coli, UniProt P0A817)
Assay: MAT assay, turnover of S/Se-Met analogs to S(Se)AM analogs (RP-HPLC end point)
Assay type: biochemical
Conditions: 2 mM Met analog, 1 mM ATP, 5 μM MAT, pH 8, 4 h, 37° C.; average of two assays
Protocol: Standard uniform assay conditions (2 mM Met analog, 1 mM ATP, 5 μM MAT, 25 mM Tris, 5 mM MgCl2, 50 mM KCl, pH 8, 4 h) were adopted to facilitate this broad assessment. For the thermophilic counterpart (mMAT), reactions were conducted at 65° C., while all other reactions were incubated at 37° C. Production of SAM analogs was determined by an RP-HPLC end point assay to afford complete analysis of the desired SAM analog and/or any corresponding degradation products known to directly derive from the desired SAM analog intermediate. Putative SAM analog and SAM-derived degradative product formation was subsequently confirmed via high-resolution mass spectrometry (HRMS) analysis for all positive reactions (see Table 2).
(§1) To monitor MAT reactions, analytical RP HPLC employed a Luna C18 column (5 μm, 4.6 mm×250 mm; Phenomenex, Torrance, Calif., USA) [gradient of 10% B to 40% B over 15 min, 40% B to 75% B over 5 min (A=10 mM NaH2PO4, 5 mM octane sulfonic acid, pH was adjusted to 3.5 using phosphoric acid; B=acetonitrile) flow rate=1 mL min^−1; A254].
(§2) In vitro MAT reactions were conducted in a volume of 50 μl with 2 mM S/Se-alkylated analog (compounds 2-30), 1 mM ATP and 5 μM purified MAT in 25 mM Tris buffer pH 8.0, 5 mM MgCl2, 50 mM KCl for 4 h. The sMAT and mMAT reactions were conducted at 65° C. while hMATs and eMAT were incubated at 37° C. Reactions were quenched by adding an equal volume of methanol followed by centrifugation (10,000×g for 15 min) to remove the precipitated protein and product formation for each reaction was subsequently analyzed by RP-HPLC using Method D (FIG. 15, first column). For each reaction, percent yield was based upon the integration of species at 254 nm and calculated by dividing the integrated area of product and/or decomposed product by the sum of integrated area of product and/or decomposed product and the remaining substrate. The assays were repeated twice under identical conditions, and Table 2 (and FIG. 5) represents an average value of two assays. The inclusion of adenine and 5′-R-thio-5′-adenosine in these calculations is based upon the established SAM and ATP chemical decomposition pathways which indicate adenine and 5′-R-thio-5′-adenosine to only derive from SAM (not ATP). All putative products were subsequently confirmed by high resolution electrospray ionization (ESI) mass spectra with positive (+) and/or negative (−) mode.

Row | Structure (SMILES) | Percentage Turn-over eMAT [%]
6 | C=C/C=C/CSCC[C@H](N)C(=O)O [compound 16, (2S)-2-amino-4-[(2E)-penta-2,4-dien-1-ylsulfanyl]butanoic acid] | 4
7 | CC(C)SCC[C@H](N)C(=O)O [compound 9, (2S)-2-amino-4-(propan-2-ylsulfanyl)butanoic acid] | 0
8 | [N-]=[N+]=NC/C=C/CSCC[C@H](N)C(=O)O [compound 23, (2S)-2-amino-4-{[(2E)-4-azidobut-2-en-1-yl]sulfanyl}butanoic acid] | 0
9 | [N-]=[N+]=NCCSCC[C@H](N)C(=O)O [compound 17, (2S)-2-amino-4-[(2-azidoethyl)sulfanyl]butanoic acid] | 0
10 | C=C(C)CSCC[C@H](N)C(=O)O [compound 12, (2S)-2-amino-4-[(2-methylprop-2-en-1-yl)sulfanyl]butanoic acid] | 0

Target: human MAT I catalytic subunit alpha (hMAT1A) (Homo sapiens, UniProt Q00266)
Assay: as above
Assay type: biochemical
Conditions: 2 mM Met analog, 1 mM ATP, 5 μM MAT, pH 8, 4 h, 37° C.; average of two assays
Protocol: (§3) Standard uniform assay conditions (2 mM Met analog, 1 mM ATP, 5 μM MAT, 25 mM Tris, 5 mM MgCl2, 50 mM KCl, pH 8, 4 h) were adopted to facilitate this broad assessment. For the thermophilic counterpart (mMAT), reactions were conducted at 65° C., while all other reactions were incubated at 37° C. Production of SAM analogs was determined by an RP-HPLC end point assay to afford complete analysis of the desired SAM analog and/or any corresponding degradation products known to directly derive from the desired SAM analog intermediate.
as §1
as §2, with “The” for “In vitro MAT reactions were conducted in a volume of 50 μl with 2 mM S/Se-alkylated analog (compounds 2-30), 1 mM ATP and 5 μM purified MAT in 25 mM Tris buffer pH 8.0, 5 mM MgCl2, 50 mM KCl for 4 h. The”

Row | Structure (SMILES) | Percentage Turn-over hMAT1A [%]
11 | C=C/C=C/CSCC[C@H](N)C(=O)O [compound 16, (2S)-2-amino-4-[(2E)-penta-2,4-dien-1-ylsulfanyl]butanoic acid] | 2
12 | CC(C)SCC[C@H](N)C(=O)O [compound 9, (2S)-2-amino-4-(propan-2-ylsulfanyl)butanoic acid] | 2
13 | [N-]=[N+]=NC/C=C/CSCC[C@H](N)C(=O)O [compound 23, (2S)-2-amino-4-{[(2E)-4-azidobut-2-en-1-yl]sulfanyl}butanoic acid] | 2
14 | [N-]=[N+]=NCCSCC[C@H](N)C(=O)O [compound 17, (2S)-2-amino-4-[(2-azidoethyl)sulfanyl]butanoic acid] | 4
15 | C=C(C)CSCC[C@H](N)C(=O)O [compound 12, (2S)-2-amino-4-[(2-methylprop-2-en-1-yl)sulfanyl]butanoic acid] | 0

Target: human MAT II catalytic alpha subunit alone (hMAT2A) (Homo sapiens, UniProt P31153)
Assay: as above
Assay type: biochemical
Conditions: 2 mM Met analog, 1 mM ATP, 5 μM MAT, pH 8, 4 h, 37° C.; average of two assays
Protocol: as §3, §1
as §2, with “The” for “In vitro MAT reactions were conducted in a volume of 50 μl with 2 mM S/Se-alkylated analog (compounds 2-30), 1 mM ATP and 5 μM purified MAT in 25 mM Tris buffer pH 8.0, 5 mM MgCl2, 50 mM KCl for 4 h. The”

Row | Structure (SMILES) | Percentage Turn-over hMAT2A [%]
16 | C=C/C=C/CSCC[C@H](N)C(=O)O [compound 16, (2S)-2-amino-4-[(2E)-penta-2,4-dien-1-ylsulfanyl]butanoic acid] | 4
17 | CC(C)SCC[C@H](N)C(=O)O [compound 9, (2S)-2-amino-4-(propan-2-ylsulfanyl)butanoic acid] | 2
18 | [N-]=[N+]=NC/C=C/CSCC[C@H](N)C(=O)O [compound 23, (2S)-2-amino-4-{[(2E)-4-azidobut-2-en-1-yl]sulfanyl}butanoic acid] | 5
19 | [N-]=[N+]=NCCSCC[C@H](N)C(=O)O [compound 17, (2S)-2-amino-4-[(2-azidoethyl)sulfanyl]butanoic acid] | 18
20 | C=C(C)CSCC[C@H](N)C(=O)O [compound 12, (2S)-2-amino-4-[(2-methylprop-2-en-1-yl)sulfanyl]butanoic acid] | 2

Target: human MAT II catalytic alpha and regulatory beta subunit (hMAT2) (Homo sapiens, UniProt P31153)
Assay: as above
Assay type: biochemical
Conditions: 2 mM Met analog, 1 mM ATP, 5 μM MAT, pH 8, 4 h, 37° C.; average of two assays
Protocol: as §3, §1
as §2, with “The” for “In vitro MAT reactions were conducted in a volume of 50 μl with 2 mM S/Se-alkylated analog (compounds 2-30), 1 mM ATP and 5 μM purified MAT in 25 mM Tris buffer pH 8.0, 5 mM MgCl2, 50 mM KCl for 4 h. The”

Row | Structure (SMILES) | Percentage Turn-over hMAT2 [%]
21 | C=C/C=C/CSCC[C@H](N)C(=O)O [compound 16, (2S)-2-amino-4-[(2E)-penta-2,4-dien-1-ylsulfanyl]butanoic acid] | 44
22 | CC(C)SCC[C@H](N)C(=O)O [compound 9, (2S)-2-amino-4-(propan-2-ylsulfanyl)butanoic acid] | 2
23 | [N-]=[N+]=NC/C=C/CSCC[C@H](N)C(=O)O [compound 23, (2S)-2-amino-4-{[(2E)-4-azidobut-2-en-1-yl]sulfanyl}butanoic acid] | 12
24 | [N-]=[N+]=NCCSCC[C@H](N)C(=O)O [compound 17, (2S)-2-amino-4-[(2-azidoethyl)sulfanyl]butanoic acid] | 49
25 | C=C(C)CSCC[C@H](N)C(=O)O [compound 12, (2S)-2-amino-4-[(2-methylprop-2-en-1-yl)sulfanyl]butanoic acid] | 2

Target: T2, Methanocaldococcus jannaschii MAT (mMAT) (Methanocaldococcus jannaschii, UniProt Q58605)
T2 sequence (Q58605 1-406): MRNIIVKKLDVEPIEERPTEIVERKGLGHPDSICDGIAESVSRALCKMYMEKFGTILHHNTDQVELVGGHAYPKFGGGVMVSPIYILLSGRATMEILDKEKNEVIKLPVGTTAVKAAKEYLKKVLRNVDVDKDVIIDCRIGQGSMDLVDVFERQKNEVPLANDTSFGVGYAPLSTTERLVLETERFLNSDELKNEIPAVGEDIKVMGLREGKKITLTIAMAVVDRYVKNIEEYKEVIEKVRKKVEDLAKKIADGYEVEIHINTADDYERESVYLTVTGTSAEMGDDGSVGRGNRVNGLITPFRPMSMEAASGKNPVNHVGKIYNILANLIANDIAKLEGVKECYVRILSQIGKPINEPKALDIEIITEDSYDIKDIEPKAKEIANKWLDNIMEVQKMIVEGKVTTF
Assay: not given
Assay type: biochemical
Conditions: 2 mM Met analog, 1 mM ATP, 5 μM MAT, pH 8, 4 h, 65° C.; average of two assays
Protocol: as §3, §1
as §2, with “The” for “In vitro MAT reactions were conducted in a volume of 50 μl with 2 mM S/Se-alkylated analog (compounds 2-30), 1 mM ATP and 5 μM purified MAT in 25 mM Tris buffer pH 8.0, 5 mM MgCl2, 50 mM KCl for 4 h. The”

Row | Structure (SMILES) | Percentage Turn-over mMAT [%]
26 | C=C/C=C/CSCC[C@H](N)C(=O)O [compound 16, (2S)-2-amino-4-[(2E)-penta-2,4-dien-1-ylsulfanyl]butanoic acid] | 8
27 | CC(C)SCC[C@H](N)C(=O)O [compound 9, (2S)-2-amino-4-(propan-2-ylsulfanyl)butanoic acid] | 8
28 | [N-]=[N+]=NC/C=C/CSCC[C@H](N)C(=O)O [compound 23, (2S)-2-amino-4-{[(2E)-4-azidobut-2-en-1-yl]sulfanyl}butanoic acid] | 32
29 | [N-]=[N+]=NCCSCC[C@H](N)C(=O)O [compound 17, (2S)-2-amino-4-[(2-azidoethyl)sulfanyl]butanoic acid] | 29
30 | C=C(C)CSCC[C@H](N)C(=O)O [compound 12, (2S)-2-amino-4-[(2-methylprop-2-en-1-yl)sulfanyl]butanoic acid] | 6

Source: patent US9879043B1, “Synthesis of non-natural cofactor analogs of S-adenosyl-L-methionine using methionine adenosyltransferase” (University of Kentucky Research Foundation, priority 2013, dated 2018)
